The values below come from patent US20080021026A1, “BENZOTHIOPHENE INHIBITORS OF RHO KINASE” (priority 2006, published 2008).

Test [1] has as its target T1, recombinant N-terminal GST-tagged human Rho kinase 1 (ROCK1, amino acids 1-535) (Homo sapiens, UniProt Q13464).
T1 construct: ROCK1, amino acids 1-535; purchased Invitrogen Inc. PV-3691
Kind of test: In vitro Rho kinase assay (luciferase-based ATP consumption), ROCK1. It is filed as biochemical. Put shortly: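 GST-ROCK1 (aa 1-535) at 0.82 μg/ml with 100 μg/ml S6 peptide and 3 µM ATP in Tris pH 7.5 buffer with MgCl2, CaCl2, EGTA, BSA; compound added after reaction start, 2 h at 30 °C. Remaining ATP read by luciferase luminescence; efficacy as percent of H-1152P positive control.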

The target of test [2] is T2, recombinant N-terminal GST-tagged human Rho kinase 2 (ROCK2, amino acids 1-552) (Homo sapiens, UniProt O75116).
T2 construct: ROCK2, amino acids 1-552; purchased Invitrogen Inc. PV3759
T2 sequence (O75116 1-552): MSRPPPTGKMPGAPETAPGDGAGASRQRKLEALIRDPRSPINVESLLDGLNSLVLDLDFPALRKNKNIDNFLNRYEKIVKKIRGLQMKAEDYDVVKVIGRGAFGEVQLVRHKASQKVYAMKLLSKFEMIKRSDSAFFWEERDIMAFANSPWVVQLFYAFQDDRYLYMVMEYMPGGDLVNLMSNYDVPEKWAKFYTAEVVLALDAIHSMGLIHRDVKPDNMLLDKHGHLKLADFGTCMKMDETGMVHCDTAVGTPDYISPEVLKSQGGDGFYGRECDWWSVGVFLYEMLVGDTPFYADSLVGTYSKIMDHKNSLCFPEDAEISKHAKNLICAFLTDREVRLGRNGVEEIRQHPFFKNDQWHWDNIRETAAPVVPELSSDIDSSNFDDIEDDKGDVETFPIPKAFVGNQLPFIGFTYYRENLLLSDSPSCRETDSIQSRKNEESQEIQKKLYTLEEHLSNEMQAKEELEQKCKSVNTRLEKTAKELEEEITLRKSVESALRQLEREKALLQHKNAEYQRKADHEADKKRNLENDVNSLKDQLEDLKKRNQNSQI
The test is described as follows: In vitro Rho kinase assay (luciferase-based ATP consumption), ROCK2. The class given is biochemical. Put shortly: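 GST-ROCK2 (aa 1-552, 0.82 μg/ml) with 100 μg/ml S6 peptide and 3 µM ATP in Tris pH 7.5 buffer with MgCl2/CaCl2/EGTA/BSA, compound added just after reaction start, 2 h at 30 °C. Remaining ATP read by luciferase luminescence. Efficacy expressed as percentage of H-1152P positive control.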

[3] abbreviates: recombinant GST-tagged human ROCK1, luciferase-based ATP consumption, read-out: ROCK1 IC50.
The mark [4] stands for this setting: recombinant GST-tagged human ROCK2, luciferase-based ATP consumption, read-out: ROCK2 IC50.
[5] abbreviates: ROCK1 IC50, recombinant GST-tagged human ROCK1, luciferase-based ATP consumption.
Where [6] appears, read: ROCK2 IC50, recombinant GST-tagged human ROCK2, luciferase-based ATP consumption.

Read-outs that look alike come from different tables or passages of the source.

T1 sequence (Q13464 1-535): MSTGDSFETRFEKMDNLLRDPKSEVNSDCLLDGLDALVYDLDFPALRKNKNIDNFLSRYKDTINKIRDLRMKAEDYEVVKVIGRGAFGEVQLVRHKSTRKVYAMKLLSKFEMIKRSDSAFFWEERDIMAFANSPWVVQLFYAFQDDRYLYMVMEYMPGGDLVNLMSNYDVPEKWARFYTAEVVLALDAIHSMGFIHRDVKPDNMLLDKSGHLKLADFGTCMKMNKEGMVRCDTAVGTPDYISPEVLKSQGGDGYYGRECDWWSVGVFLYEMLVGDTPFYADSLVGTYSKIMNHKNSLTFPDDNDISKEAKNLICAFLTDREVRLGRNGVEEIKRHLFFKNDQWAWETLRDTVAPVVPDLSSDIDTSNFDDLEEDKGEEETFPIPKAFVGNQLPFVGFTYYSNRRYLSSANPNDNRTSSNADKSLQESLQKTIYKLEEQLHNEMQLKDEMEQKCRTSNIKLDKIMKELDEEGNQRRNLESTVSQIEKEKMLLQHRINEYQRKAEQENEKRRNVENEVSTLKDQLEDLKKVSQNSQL

With `Cc1c(-c2ccnc(N)n2)sc2ccc(CNC(=O)C(C)O)cc12` (centres unmarked) [Example 98, C[C](O)C(═O)NCc1ccc2sc(c(C)c2c1)-c3ccnc(N)n3], the 50% inhibitory concentration (IC50) in test [1] (setting [3]) is over 5 µM; in test [2] (setting [4]) it was under 5 µM.

With `Cc1c(-c2ccnc(N)n2)sc2ccc(CNC(=O)c3ccccc3Cc3ccccc3)cc12` [Example 281, Cc1c(sc2ccc(CNC(═O)c3ccccc3Cc4ccccc4)cc12)-c5ccnc(N)n5], the values for the IC50 in test [1] (setting [3]) and in test [2] (setting [4]) were over 5 µM and under 5 µM, respectively.

Regarding `Cc1c(C(=O)NCc2ccc3sc(-c4ccnc(N)n4)c(C)c3c2)oc2ccccc12` [Example 197, Cc1c(oc2ccccc12)C(═O)NCc3ccc4sc(c(C)c4c3)-c5ccnc(N)n5], the half-maximal inhibitory concentration (IC50) was under 5 µM in test [1] (setting [3]) and over 5 µM in test [2] (setting [4]).

As to `COc1cc(C(=O)NCc2ccc3sc(-c4ccnc(N)n4)c(C)c3c2)c([N+](=O)[O-])cc1OC` [Example 301, COc1cc(C(═O)NCc2ccc3sc(c(C)c3c2)-c4ccnc(N)n4)c(cc1OC)[N+]([O−])═O], the IC50 in test [1] (setting [3]) was over 5 µM; in test [2] (setting [4]), under 5 µM.

`Cc1c(-c2ccnc(N)n2)sc2ccc(Cc3cccc(C(F)(F)F)c3)cc12` [Example 39, 4-(3-Methyl-5-(3-(trifluoromethyl)benzyl)benzo[b]thiophen-2-yl)pyrimidin-2-amine]: the IC50 in test [1] (setting [3]) and in test [2] (setting [4]) was over 5 µM in each case.

On to `Cc1c(-c2ccnc(N)n2)sc2ccc(Nc3cccc(NC(=O)c4ccc(OCCN5CCOCC5)cc4)c3)cc12` [Example 59, N-(3-(2-(2-Aminopyrimidin-4-yl)-3-methylbenzo[b]thiophen-5-ylamino)phenyl)-4-(2-morpholinoethoxy)benzamide], for which the IC50 in test [1] (setting [3]) and in test [2] (setting [4]) was under 5 µM in each case.

Take `Cc1c(-c2ccnc(N)n2)sc2ccc(CNC(=O)c3ccc(F)cc3Cl)cc12` [Example 194, Cc1c(sc2ccc(CNC(═O)c3ccc(F)cc3Cl)cc12)-c4ccnc(N)n4]: the results for the 50% inhibitory concentration (IC50) in test [1] (setting [5]) and in test [2] (setting [6]) were over 5 µM and under 5 µM, respectively.

For the molecule `Cc1c(-c2ccnc(N)n2)sc2ccc(CNC(=O)c3ccc(C#N)cc3)cc12` [Example 126, Cc1c(sc2ccc(CNC(═O)c3ccc(cc3)C#N)cc12)-c4ccnc(N)n4], the IC50 in test [1] (setting [3]) and in test [2] (setting [4]) was under 5 µM throughout.

In the case of `CC(=O)NC(Cc1ccc(O)cc1)C(=O)NCc1ccc2sc(-c3ccnc(N)n3)c(C)c2c1` (centres unmarked) [Example 299, CC(═O)N[C](Cc1ccc(O)cc1)C(═O)NCc2ccc3sc(c(C)c3c2)-c4ccnc(N)n4], the IC50 in test [1] (setting [3]) and in test [2] (setting [4]) was over 5 µM throughout.

For the molecule `Cc1c(-c2ccnc(N)n2)sc2ccc(CNC(=O)c3ccnc(Cl)c3)cc12` [Example 150, Cc1c(sc2ccc(CNC(═O)c3ccnc(Cl)c3)cc12)-c4ccnc(N)n4], the concentration for half-maximal inhibition (IC50) in test [1] (setting [3]) and in test [2] (setting [4]) was under 5 µM in each case.

Consider `Cc1c(-c2ccnc(N)n2)sc2ccc(CNC(=O)c3ccc4cccc(O)c4n3)cc12` [Example 240, Cc1c(sc2ccc(CNC(═O)c3ccc4cccc(O)c4n3)cc12)-c5ccnc(N)n5], for which the IC50 in test [1] (setting [3]) and in test [2] (setting [4]) was under 5 µM in each case.

As to `Cc1c(-c2ccnc(N)n2)sc2ccc(CNC(=O)c3ccc4ccccc4c3O)cc12` [Example 239, Cc1c(sc2ccc(CNC(═O)c3ccc4ccccc4c3O)cc12)-c5ccnc(N)n5], the IC50 in test [1] (setting [3]) was over 5 µM; in test [2] (setting [4]) it was under 5 µM.

As for `Cc1c(C(=O)NCc2ccc3sc(-c4ccnc(N)n4)c(C)c3c2)cccc1[N+](=O)[O-]` [Example 218, Cc1c(cccc1[N+]([O−])═O)C(═O)NCc2ccc3sc(c(C)c3c2)-c4ccnc(N)n4], the results for the 50% inhibitory concentration (IC50) in test [1] (setting [3]) and in test [2] (setting [4]) were over 5 µM and under 5 µM, respectively.

Regarding `CCC(=O)C(=O)NCc1ccc2sc(-c3ccnc(N)n3)c(C)c2c1` [Example 99, CCC(═O)C(═O)NCc1ccc2sc(c(C)c2c1)-c3ccnc(N)n3], the IC50 in test [1] (setting [3]) and in test [2] (setting [4]) was under 5 µM throughout.

Take `Cc1c(-c2ccnc(N)n2)sc2ccc(C(=O)Nc3ccc(OCCN4CCOCC4)cc3)cc12` [Example 21, 2-(2-Aminopyrimidin-4-yl)-3-methyl-N-(4-(2-morpholinoethoxy)phenyl)benzo[b]thiophene-5-carboxamide]: the IC50 in test [1] (setting [3]) and in test [2] (setting [4]) was under 5 µM each time.

Turning to `Cc1c(-c2ccnc(N)n2)sc2ccc(CNC(=O)c3ccccc3O)cc12` [Example 122, Cc1c(sc2ccc(CNC(═O)c3ccccc3O)cc12)-c4ccnc(N)n4], the values for the IC50 in test [1] (setting [3]) and in test [2] (setting [4]) were over 5 µM and under 5 µM, respectively.

For `CCC(C)C(NC(=O)OC(C)(C)C)C(=O)NCc1ccc2sc(-c3ccnc(N)n3)c(C)c2c1` (centres unmarked) [Example 322, CCC(C)[C](NC(═O)OC(C)(C)C)C(═O)NCc1ccc2sc(c(C)c2c1)-c3ccnc(N)n3], the values for the IC50 in test [1] (setting [3]) and in test [2] (setting [4]) were under 5 µM and over 5 µM, respectively.

As to `Cc1c(-c2ccnc(N)n2)sc2ccc(CNC(=O)c3cc(O)ccc3O)cc12` [Example 142, Cc1c(sc2ccc(CNC(═O)c3cc(O)ccc3O)cc12)-c4ccnc(N)n4], the half-inhibitory concentration (IC50) in test [1] (setting [3]) was over 5 µM; in test [2] (setting [4]), under 5 µM.

`Cc1c(-c2ccnc(N)n2)sc2ccc(CNC(=O)c3cc(Cl)ccc3O)cc12` [Example 191, Cc1c(sc2ccc(CNC(═O)c3cc(Cl)ccc3O)cc12)-c4ccnc(N)n4]: the IC50 in test [1] (setting [3]) was over 5 µM; in test [2] (setting [4]), under 5 µM.

Regarding `Cc1c(-c2ccnc(N)n2)sc2ccc(C(=O)c3ccccc3)cc12` [Example 87, (2-(2-Aminopyrimidin-4-yl)-3-methylbenzo[b]thiophen-5-yl)(phenyl)methanone], the results for the IC50 in test [1] (setting [3]) and in test [2] (setting [4]) were over 5 µM and under 5 µM, respectively.

For `Cc1c(-c2ccnc(N)n2)sc2ccc(CNC(=O)CCc3ccccc3Br)cc12` [Example 303, Cc1c(sc2ccc(CNC(═O)CCc3ccccc3Br)cc12)-c4ccnc(N)n4], the IC50 in test [1] (setting [3]) and in test [2] (setting [4]) was over 5 µM throughout.

As to `Cc1c(-c2ccnc(N)n2)sc2ccc(CNC(=O)c3ccc(O)cc3O)cc12` [Example 144, Cc1c(sc2ccc(CNC(═O)c3ccc(O)cc3O)cc12)-c4ccnc(N)n4], the half-inhibitory concentration (IC50) in test [1] (setting [3]) was over 5 µM; in test [2] (setting [4]) it was under 5 µM.

For `Cc1c(-c2ccnc(N)n2)sc2ccc(CNC(=O)c3cn(C)cn3)cc12` [Example 114, Cc1c(sc2ccc(CNC(═O)c3cn(C)cn3)cc12)-c4ccnc(N)n4], the IC50 in test [1] (setting [3]) was over 5 µM; in test [2] (setting [4]), under 5 µM.

For `Cc1c(-c2ccnc(N)n2)sc2ccc(CNC(=O)COc3ccccc3C=O)cc12` [Example 207, Cc1c(sc2ccc(CNC(═O)COc3ccccc3C═O)cc12)-c4ccnc(N)n4], the IC50 in test [1] (setting [3]) and in test [2] (setting [4]) was under 5 µM each time.

Take `Cc1c(-c2ccnc(N)n2)sc2ccc(CNC(=O)CCc3ccccc3O)cc12` [Example 176, Cc1c(sc2ccc(CNC(═O)CCc3ccccc3O)cc12)-c4ccnc(N)n4]: the values for the IC50 in test [1] (setting [3]) and in test [2] (setting [4]) were over 5 µM and under 5 µM, respectively.

As to `Cc1c(-c2ccnc(N)n2)sc2ccc(CNC(=O)C3Cc4ccccc4CN3C(=O)OC(C)(C)C)cc12` (centres unmarked) [Example 327, Cc1c(sc2ccc(CNC(═O)[C]3Cc4ccccc4CN3C(═O)OC(C)(C)C)cc12)-c5ccnc(N)n5], the concentration for half-maximal inhibition (IC50) in test [1] (setting [3]) is under 5 µM; in test [2] (setting [4]), over 5 µM.

For the molecule `COC(=O)c1ccc(C(=O)Nc2cccc(Nc3ccc4sc(-c5ccnc(N)n5)c(C)c4c3)c2)cc1` [Example 62, Methyl 4-(3-(2-(2-aminopyrimidin-4-yl)-3-methylbenzo[b]thiophen-5-ylamino)phenylcarbamoyl)benzoate], the half-inhibitory concentration (IC50) in test [1] (setting [3]) and in test [2] (setting [4]) was under 5 µM in each case.

`Cc1c(-c2ccnc(N)n2)sc2ccc(Nc3ccncc3)cc12` [Example 66, 4-(3-Methyl-5-(pyridin-4-ylamino)benzo[b]thiophen-2-yl)pyrimidin-2-amine]: the IC50 in test [1] (setting [3]) and in test [2] (setting [4]) was under 5 µM throughout.

In the case of `Cc1c(-c2nccnc2N)sc2ccc(Cl)cc12` [Example 12, 3-(5-Chloro-3-methylbenzo[b]thiophen-2-yl)pyrazin-2-amine], the IC50 in test [1] (setting [3]) and in test [2] (setting [4]) was over 5 µM throughout.

On to `COc1cncc(Nc2ccc3sc(-c4ccnc(N)n4)c(C)c3c2)c1` [Example 67, 4-(5-(5-Methoxypyridin-3-ylamino)-3-methylbenzo[b]thiophen-2-yl)pyrimidin-2-amine], for which the concentration for half-maximal inhibition (IC50) in test [1] (setting [3]) and in test [2] (setting [4]) was under 5 µM throughout.

Turning to `Cc1c(-c2ccnc(N)n2)sc2ccc(Nc3ccccc3)cc12` [Example 69, 4-(3-Methyl-5-(phenylamino)benzo[b]thiophen-2-yl)pyrimidin-2-amine], the concentration for half-maximal inhibition (IC50) in test [1] (setting [3]) and in test [2] (setting [4]) was under 5 µM each time.

As for `Cc1cccc(C(=O)NCc2ccc3sc(-c4ccnc(N)n4)c(C)c3c2)c1O` [Example 139, Cc1cccc(C(═O)NCc2ccc3sc(c(C)c3c2)-c4ccnc(N)n4)c1O], the IC50 in test [1] (setting [3]) was over 5 µM; in test [2] (setting [4]), under 5 µM.

On to `Cc1c(-c2ccnc(N)n2)sc2ccc(CNC(=O)CCc3nc4ccccc4[nH]3)cc12` [Example 244, Cc1c(sc2ccc(CNC(═O)CCc3nc4ccccc4[nH]3)cc12)-c5ccnc(N)n5], for which the concentration for half-maximal inhibition (IC50) in test [1] (setting [3]) and in test [2] (setting [4]) was under 5 µM throughout.

For `Cc1c(-c2ccnc(N)n2)sc2ccc(CNC(=O)c3c(Cl)cc(Cl)cc3Cl)cc12` [Example 300, Cc1c(sc2ccc(CNC(═O)c3c(Cl)cc(Cl)cc3Cl)cc12)-c4ccnc(N)n4], the IC50 in test [1] (setting [5]) is over 5 µM; in test [2] (setting [6]), under 5 µM.
